As a reminder, the EC50 is the midpoint of the concentration-response curve.

Like-named read-outs stand apart in the source and are kept apart here.

This is an account of results in patent US9499550B2 (BRISTOL-MYERS SQUIBB COMPANY, priority 2012, dated 2016).

Test [1] relates to HCV genotype 1b (Con1) replicon in HUH-7 cells. Description: HCV replicon luciferase reporter assay, genotype 1b. In kind it is cell-based. The settings on record: Hepatitis C virus, Huh-7, 72 h, HCV genotype 1b replicon luciferase, 3 days incubation. The procedure, abridged:
(§1)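 Replicon inhibition for both genotypes was measured as Renilla luciferase signal (EnduRen, 7.5 μM final, 2 h) after 3-day, 37° C exposure of replicon-bearing HUH-7 cells in 4% FCS DMEM, 0.5% DMSO. The 1b construct carries S1179I; the 1a H77 construct carries P1496L and S2204I. Twenty-point, 3-fold dilutions were fitted four-parametrically for EC50, and CC50 was taken from multiplexed Cell Titer-Blue.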
On the technique in general: A replicon is a self-replicating genome or part of one, used to study replication in cells.

The subject of test [2] is HCV genotype 1a (H77 strain) replicon in HUH-7 cells. Description: HCV replicon luciferase reporter assay, genotype 1a. In kind it is cell-based. The settings on record: Hepatitis C virus, Huh-7, 72 h, HCV genotype 1a replicon luciferase, 3 days incubation. In outline: as §1

For the compound `[2H]C([2H])([2H])C(OC(=O)N[C@@H]1C(=O)N2C[C@H](Oc3nccc4c5c(ccc34)N(C)CCO5)C[C@H]2C(=O)N[C@]2(C(=O)NS(=O)(=O)C3CC3)C[C@H]2/C=C\CC[C@@H](C)C[C@H]1C)(C([2H])([2H])[2H])C(F)(F)F` [Compound 5280, 1,1,1,3,3,3-hexadeutero-2-(trifluoromethyl)propan-2-yl((2R,6S,7R,9R,13aS,14aR,16aS,Z)-14a-((cyclopropylsulfonyl)carbamoyl)-7,9-dimethyl-2-((4-methyl-3,4-dihydro-2H-[1,4]oxazino[2,3-f]isoquinolin-7-yl)oxy)-5,16-dioxo-1,2,3,5,6,7,8,9,10,11,13a,14,14a,15,16,16a-hexadecahydrocyclopropa[e]pyrrolo[1,2-a][1,4]diazacyclopentadecin-6-yl)carbamate], the EC50 in test [1] (read-out: LE_1b (EC50, range)) was less than 5.46 nM; in test [2] (read-out: LE_1a (EC50, range)), less than 5.46 nM.
Take `C[C@H]1CC/C=C\[C@@H]2C[C@@]2(C(=O)NS(=O)(=O)C2CC2)NC(=O)[C@@H]2C[C@@H](Oc3nccc4c5c(ccc34)N(C)CCO5)CN2C(=O)[C@@H](NC(=O)OC(C)(C)C(C)(F)F)[C@H](C)C1` [Compound 5281, 3,3-difluoro-2-methylbutan-2-yl((2R,6S,7R,9S,13aS,14aR,16aS,Z)-14a-((cyclopropylsulfonyl)carbamoyl)-7,9-dimethyl-2-((4-methyl-3,4-dihydro-2H-[1,4]oxazino[2,3-f]isoquinolin-7-yl)oxy)-5,16-dioxo-1,2,3,5,6,7,8,9,10,11,13a,14,14a,15,16,16a-hexadecahydrocyclopropa[e]pyrrolo[1,2-a][1,4]diazacyclopentadecin-6-yl)carbamate]: the EC50 was less than 5.46 nM in test [1] (read-out: LE_1b (EC50, range)) and less than 5.46 nM in test [2] (read-out: LE_1a (EC50, range)).
For the compound `C[C@@H]1CC/C=C\[C@@H]2C[C@@]2(C(=O)NS(=O)(=O)C2CC2)NC(=O)[C@@H]2C[C@@H](Oc3nccc4c5c(ccc34)N(C)CCO5)CN2C(=O)[C@@H](NC(=O)OC(C)(C)C(C)(F)F)[C@H](C)C1` [Compound 5282, 3,3-difluoro-2-methylbutan-2-yl((2R,6S,7R,9R,13aS,14aR,16aS,Z)-14a-((cyclopropylsulfonyl)carbamoyl)-7,9-dimethyl-2-((4-methyl-3,4-dihydro-2H-[1,4]oxazino[2,3-f]isoquinolin-7-yl)oxy)-5,16-dioxo-1,2,3,5,6,7,8,9,10,11,13a,14,14a,15,16,16a-hexadecahydrocyclopropa[e]pyrrolo[1,2-a][1,4]diazacyclopentadecin-6-yl)carbamate], the EC50 in test [1] (read-out: LE_1b (EC50, range)) was less than 5.46 nM; in test [2] (read-out: LE_1a (EC50, range)) it was less than 5.46 nM.
As for `C[C@H]1CC/C=C\[C@@H]2C[C@@]2(C(=O)NS(=O)(=O)C2CC2)NC(=O)[C@@H]2C[C@@H](Oc3nccc4c5c(ccc34)N(C)CCO5)CN2C(=O)[C@@H](NC(=O)NC(C)(C)C)[C@H](C)C1` [Compound 5283, (2R,6S,7R,9S,13aS,14aR,16aS,Z)-6-(3-(tert-butyl)ureido)-N-(cyclopropylsulfonyl)-7,9-dimethyl-2-((4-methyl-3,4-dihydro-2H-[1,4]oxazino[2,3-f]isoquinolin-7-yl)oxy)-5,16-dioxo-1,2,3,5,6,7,8,9,10,11,13a,14,14a,15,16,16a-hexadecahydrocyclopropa[e]pyrrolo[1,2-a][1,4]diazacyclopentadecine-14a-carboxamide], the EC50 in test [1] (read-out: LE_1b (EC50)) was 3.12 nM; in test [1] (read-out: LE_1b (EC50, range)) it was less than 5.46 nM; in test [2] (read-out: LE_1a (EC50)) it was 4.82 nM; in test [2] (read-out: LE_1a (EC50, range)), less than 5.46 nM.
`C[C@@H]1CC/C=C\[C@@H]2C[C@@]2(C(=O)NS(=O)(=O)C2CC2)NC(=O)[C@@H]2C[C@@H](Oc3nccc4c5c(ccc34)N(C)CCO5)CN2C(=O)[C@@H](NC(=O)NC(C)(C)C)[C@H](C)C1` [Compound 5284, (2R,6S,7R,9R,13aS,14aR,16aS,Z)-6-(3-(tert-butyl)ureido)-N-(cyclopropylsulfonyl)-7,9-dimethyl-2-((4-methyl-3,4-dihydro-2H-[1,4]oxazino[2,3-f]isoquinolin-7-yl)oxy)-5,16-dioxo-1,2,3,5,6,7,8,9,10,11,13a,14,14a,15,16,16a-hexadecahydrocyclopropa[e]pyrrolo[1,2-a][1,4]diazacyclopentadecine-14a-carboxamide]: the half-maximal effective concentration (EC50) in test [1] (read-out: LE_1b (EC50, range)) was less than 5.46 nM; in test [2] (read-out: LE_1a (EC50, range)), less than 5.46 nM.
In the case of `[2H]C([2H])([2H])C(C)(OC(=O)N[C@@H]1C(=O)N2C[C@H](Oc3nccc4c5c(ccc34)N(C)CCO5)C[C@H]2C(=O)N[C@]2(C(=O)NS(=O)(=O)C3CC3)C[C@H]2/C=C\CC[C@H](C)C[C@H]1C)C([2H])([2H])[2H]` [Compound 5285, 1,1,1,3,3,3-hexadeutero-2-methylpropan-2-yl((2R,6S,7R,9S,13aS,14aR,16aS,Z)-14a-((cyclopropylsulfonyl)carbamoyl)-7,9-dimethyl-2-((4-methyl-3,4-dihydro-2H-[1,4]oxazino[2,3-f]isoquinolin-7-yl)oxy)-5,16-dioxo-1,2,3,5,6,7,8,9,10,11,13a,14,14a,15,16,16a-hexadecahydrocyclopropa[e]pyrrolo[1,2-a][1,4]diazacyclopentadecin-6-yl)carbamate], the EC50 is less than 5.46 nM in test [1] (read-out: LE_1b (EC50, range)) and 4.82 to 103 nM in test [2] (read-out: LE_1a (EC50, range)).
As for `[2H]C([2H])([2H])C(C)(OC(=O)N[C@@H]1C(=O)N2C[C@H](Oc3nccc4c5c(ccc34)N(C)CCO5)C[C@H]2C(=O)N[C@]2(C(=O)NS(=O)(=O)C3CC3)C[C@H]2/C=C\CC[C@@H](C)C[C@H]1C)C([2H])([2H])[2H]` [Compound 5286, 1,1,1,3,3,3-hexadeutero-2-methylpropan-2-yl((2R,6S,7R,9R,13aS,14aR,16aS,Z)-14a-((cyclopropylsulfonyl)carbamoyl)-7,9-dimethyl-2-((4-methyl-3,4-dihydro-2H-[1,4]oxazino[2,3-f]isoquinolin-7-yl)oxy)-5,16-dioxo-1,2,3,5,6,7,8,9,10,11,13a,14,14a,15,16,16a-hexadecahydrocyclopropa[e]pyrrolo[1,2-a][1,4]diazacyclopentadecin-6-yl)carbamate], the EC50 in test [1] (read-out: LE_1b (EC50, range)) is less than 5.46 nM; in test [2] (read-out: LE_1a (EC50, range)), less than 5.46 nM.
For `[2H]C([2H])([2H])C(OC(=O)N[C@@H]1C(=O)N2C[C@H](Oc3nccc4c5c(ccc34)N(C)CCO5)C[C@H]2C(=O)N[C@]2(C(=O)NS(=O)(=O)C3CC3)C[C@H]2/C=C\CC[C@H](C)C[C@H]1C)(C([2H])([2H])[2H])C([2H])([2H])[2H]` [Compound 5287, 1,1,1,3,3,3-hexadeutero-2-(trideuteromethyl)propan-2-yl((2R,6S,7R,9S,13aS,14aR,16aS,Z)-14a-((cyclopropylsulfonyl)carbamoyl)-7,9-dimethyl-2-((4-methyl-3,4-dihydro-2H-[1,4]oxazino[2,3-f]isoquinolin-7-yl)oxy)-5,16-dioxo-1,2,3,5,6,7,8,9,10,11,13a,14,14a,15,16,16a-hexadecahydrocyclopropa[e]pyrrolo[1,2-a][1,4]diazacyclopentadecin-6-yl)carbamate], the EC50 was less than 5.46 nM in test [1] (read-out: LE_1b (EC50, range)) and less than 5.46 nM in test [2] (read-out: LE_1a (EC50, range)).
